According to the supplement of paper PMC11451515:

Test system: SEM cells
Assay: cell viability relative to DMSO control; higher = less cytotoxic
Conditions: 48 h
In short: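 NOMO1 or SEM (500 cells/well) or P12-Ichikawa (1000 cells/well) leukemia cells were adapted for at least four passages in each medium. They were seeded in 1536-well plates (5 μl) and pin-dosed with library compounds in DMSO over an 11-point threefold series, 47 μM to 0.79 nM. CellTiter-Glo One luminescence was read after 48 h at 37°C. Viability is the per-plate percentage relative to DMSO wells, with cell-free wells as background.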

[1] = HPLM + 10% dialyzed FBS, 0.000781 µM
[2] = HPLM + 10% dialyzed FBS, 0.00234 µM
[3] = HPLM + 10% dialyzed FBS, 0.00702 µM
[4] = HPLM + 10% dialyzed FBS, 0.0211 µM
[5] = HPLM + 10% dialyzed FBS, 0.0632 µM
[6] = HPLM + 10% dialyzed FBS, 0.19 µM
[7] = HPLM + 10% dialyzed FBS, 0.569 µM
[8] = HPLM + 10% dialyzed FBS, 1.71 µM
[9] = HPLM + 10% dialyzed FBS, 5.12 µM
[10] = HPLM + 10% dialyzed FBS, 15.4 µM
[11] = HPLM + 10% dialyzed FBS, 46.1 µM
[12] = RPMI 5 mM glucose + 10% FBS, 0.000781 µM
[13] = RPMI 5 mM glucose + 10% FBS, 0.00234 µM
[14] = RPMI 5 mM glucose + 10% FBS, 0.00702 µM
[15] = RPMI 5 mM glucose + 10% FBS, 0.0211 µM
[16] = RPMI 5 mM glucose + 10% FBS, 0.0632 µM
[17] = RPMI 5 mM glucose + 10% FBS, 0.19 µM
[18] = RPMI 5 mM glucose + 10% FBS, 0.569 µM
[19] = RPMI 5 mM glucose + 10% FBS, 1.71 µM
[20] = RPMI 5 mM glucose + 10% FBS, 5.12 µM
[21] = RPMI 5 mM glucose + 10% FBS, 15.4 µM
[22] = RPMI 5 mM glucose + 10% FBS, 46.1 µM
[23] = RPMI 5 mM glucose + 10% dialyzed FBS, 0.000781 µM
[24] = RPMI 5 mM glucose + 10% dialyzed FBS, 0.00234 µM
[25] = RPMI 5 mM glucose + 10% dialyzed FBS, 0.00702 µM
[26] = RPMI 5 mM glucose + 10% dialyzed FBS, 0.0211 µM
[27] = RPMI 5 mM glucose + 10% dialyzed FBS, 0.0632 µM
[28] = RPMI 5 mM glucose + 10% dialyzed FBS, 0.19 µM
[29] = RPMI 5 mM glucose + 10% dialyzed FBS, 0.569 µM
[30] = RPMI 5 mM glucose + 10% dialyzed FBS, 1.71 µM
[31] = RPMI 5 mM glucose + 10% dialyzed FBS, 5.12 µM
[32] = RPMI 5 mM glucose + 10% dialyzed FBS, 15.4 µM
[33] = RPMI 5 mM glucose + 10% dialyzed FBS, 46.1 µM

Row | Compound | cell viability [1] | cell viability [2] | cell viability [3] | cell viability [4] | cell viability [5] | cell viability [6] | cell viability [7] | cell viability [8] | cell viability [9] | cell viability [10] | cell viability [11] | cell viability [12] | cell viability [13] | cell viability [14] | cell viability [15] | cell viability [16] | cell viability [17] | cell viability [18] | cell viability [19] | cell viability [20] | cell viability [21] | cell viability [22] | cell viability [23] | cell viability [24] | cell viability [25] | cell viability [26] | cell viability [27] | cell viability [28] | cell viability [29] | cell viability [30] | cell viability [31] | cell viability [32] | cell viability [33]
1 | Cc1cc(SCc2sc(-c3ccc(C(F)(F)F)cc3)nc2C)ccc1OCC(=O)O | 98.4% | 102% | 98.3% | 113% | 102% | 109% | 113% | 105% | 99.3% | 48.9% | 98.4% | 94.3% | 101% | 89.4% | 102% | 102% | 105% | 100% | 104% | 114% | 57.5% | 93.5% | 99.9% | 101% | 96.1% | 97% | 109% | 92.5% | 102% | 109% | 99.4% | 48.3% | 97.9%
2 | C=CC(=O)Nc1cccc(Oc2nc(Nc3ccc(N4CCN(C)CC4)cc3OC)ncc2Cl)c1 | 58.4% | 72.7% | 56.4% | 65.8% | 74% | 81.1% | 72.3% | 68.5% | 33.2% | 48% | 13.3% | 80.4% | 89.2% | 60.5% | 88.2% | 94.2% | 91.2% | 56.4% | 65.3% | 22.6% | 41.6% | 5.05% | 62.5% | 69.8% | 52.6% | 58.2% | 70.8% | 72.9% | 64.1% | 42.3% | 24.1% | 41.8% | 18%
3 | COc1ccc2c(OCc3nnc4ccc(-c5ccccc5)nn34)ccnc2c1 | 106% | 101% | 101% | 107% | 120% | 92.9% | 107% | 102% | 97.4% | 75.9% | 15.6% | 68.7% | 63.1% | 71.5% | 82.1% | 84% | 78.6% | 105% | 78.2% | 60.8% | 25.6% | 1.49% | 94% | 96.8% | 90.5% | 111% | 115% | 102% | 95.3% | 91.1% | 81% | 63.1% | 3.65%
4 | CO[C@H]1/C=C/O[C@@]2(C)Oc3c(C)c(O)c4c(O)c(c(/C=N\N5CCN(C6CCCC6)CC5)c(O)c4c3C2=O)NC(=O)/C(C)=C\C=C\[C@H](C)[C@H](O)[C@@H](C)[C@@H](O)[C@@H](C)[C@H](OC(C)=O)[C@@H]1C | 78.4% | 70.3% | 63.7% | 62.1% | 45.6% | 15% | 6.95% | 3.02% | 1.55% | 1.63% | 1.24% | 39.3% | 42.6% | 34.7% | 33.5% | 29.1% | 9.34% | 4.87% | 2.56% | 1.35% | 1.05% | 0.91% | 58% | 63.5% | 60.5% | 47.5% | 50.4% | 19.8% | 8.21% | 2.82% | 1.68% | 1.26% | 1.06%
5 | COc1ccc(CC2c3cc(OC)c(OC)cc3CC[N+]2(C)CCC(=O)OCCCCCOC(=O)CC[N+]2(C)CCc3cc(OC)c(OC)cc3C2Cc2ccc(OC)c(OC)c2)cc1OC (centres undefined) | 81.2% | 80.8% | 92.9% | 98.4% | 80.3% | 94% | 103% | 101% | 97.1% | 22.6% | 88% | 81% | 77.6% | 94% | 78.5% | 81.1% | 99.2% | 91.2% | 102% | 92.1% | 13.2% | 85.1% | 75% | 73.3% | 93.8% | 96% | 79.9% | 93.8% | 104% | 103% | 91.1% | 22.1% | 80.2%
6 | FC1=CC=C(CN2\C=C/C=C(/C(=O)N[C@@H](COC3=CC4=C(NC(=O)N4)C=C3)C5=CC=CC=C5)C2=O)C=C1F | 79.5% | 85.6% | 69.3% | 94.2% | 93.8% | 98.8% | 93.3% | 77.5% | 61% | 54.6% | 41.8% | 93.6% | 108% | 85.9% | 119% | 109% | 108% | 93.8% | 90% | 57.1% | 59.4% | 38.5% | 79.8% | 91.2% | 78.5% | 93.4% | 84.5% | 93.1% | 81% | 76.9% | 57.4% | 49.8% | 44.3%
7 | CN(C)CC[C@H](CSc1ccccc1)Nc1ccc([S+](=O)([O-])NC(=O)c2ccc(N3CCN(Cc4ccccc4-c4ccc(Cl)cc4)CC3)cc2)cc1[N+](=O)[O-] | 116% | 126% | 111% | 82.7% | 64.8% | 23.7% | 10.8% | 8.48% | 6.85% | 6.25% | 3.88% | 103% | 118% | 110% | 102% | 73.8% | 27.7% | 11.1% | 6.52% | 4.95% | 3.98% | 2.62% | 128% | 91.3% | 99.7% | 81.7% | 57.4% | 19.7% | 11.3% | 8.96% | 5.67% | 4.98% | 3.36%
8 | C=C[C@H]1CN2CCC1C[C@@H]2[C@@H](O)c1ccnc2ccccc12 (some centres undefined) | 95.4% | 95.7% | 103% | 112% | 98.5% | 96.1% | 91% | 93.6% | 85.2% | 89.1% | 72.1% | 92% | 105% | 93.2% | 106% | 108% | 104% | 100% | 92.9% | 73.5% | 78.1% | 51.1% | 106% | 100% | 90% | 106% | 102% | 103% | 110% | 94.1% | 87.3% | 86.6% | 64.1%
9 | CN(CCOc1ccc(NS(C)(=O)=O)cc1)CCc1ccc(NS(C)(=O)=O)cc1 | 102% | 108% | 105% | 107% | 104% | 120% | 111% | 117% | 128% | 93.9% | 131% | 89.9% | 111% | 101% | 110% | 122% | 101% | 119% | 107% | 109% | 79.7% | 94.6% | 85.2% | 95.2% | 102% | 100% | 94% | 100% | 96.9% | 104% | 96.1% | 56.1% | 91.6%
10 | CO[C@@H]1[C@@H](OC(N)=O)[C@@H](O)[C@H](OC2=CC=C3\C(=C(NC(=O)C4=CC=C([O-])C(=C4)CC=C(C)C)/C(=O)OC3=C2C)O)OC1(C)C | 106% | 110% | 123% | 97.7% | 118% | 116% | 102% | 101% | 121% | 98.7% | 117% |  |  |  |  |  |  |  |  |  |  |  | 105% | 106% | 109% | 114% | 111% | 115% | 109% | 101% | 107% | 81.5% | 110%
11 | OCCNC1CCCc2c1[nH]c1ccc(-c3ccccc3)cc21 (centres undefined) | 81.1% | 86.7% | 91.5% | 84.7% | 106% | 101% | 90.2% | 100% | 85.4% | 67.3% | 19.5% | 99.6% | 87.8% | 101% | 109% | 108% | 105% | 88.7% | 91.6% | 74% | 56.1% | 5.82% | 85.6% | 87.9% | 89.7% | 96.1% | 88.7% | 104% | 99% | 94.2% | 94.7% | 68.2% | 22.9%
12 | NC(=O)c1ccc(-c2nc(-c3ccc4c(c3)OCO4)c(-c3ccccn3)[nH]2)cc1 | 123% | 116% | 128% | 25.6% | 130% | 121% | 124% | 125% | 128% | 129% | 122% | 93.4% | 85.5% | 98.2% | 9.45% | 89.5% | 86.8% | 92.1% | 93.7% | 102% | 86.3% | 66.9% | 108% | 123% | 110% | 18.9% | 120% | 111% | 128% | 131% | 123% | 134% | 102%
13 | CCC(=O)OC1CCC2C3CCC/4=C/C(=O)CC[C@@]4(C)C3CC[C@]12C (some centres undefined) | 104% | 107% | 110% | 118% | 132% | 115% | 128% | 141% | 123% | 121% | 137% | 102% | 107% | 116% | 119% | 133% | 138% | 124% | 128% | 120% | 125% | 117% | 102% | 111% | 102% | 114% | 139% | 114% | 115% | 137% | 120% | 127% | 127%
14 | COc1ccc(C(=O)CC(=O)c2ccc(C(C)(C)C)cc2)cc1 | 70.8% | 73.2% | 75.9% | 66.4% | 69.1% | 78.2% | 75.8% | 76.1% | 80.8% | 93.5% | 68.3% | 100% | 94.4% | 101% | 93% | 99% | 88% | 98.5% | 95.1% | 110% | 106% | 89.9% | 91.7% | 96.1% | 101% | 105% | 100% | 104% | 117% | 92% | 111% | 90.8% | 115%
15 | O=C(C[C@@H]1C/C=C\CCC(=O)O[C@H](c2ccccc2)CNC1=O)NCc1ccc(Cl)cc1 | 77% | 109% | 46.9% | 111% | 109% | 118% | 128% | 107% | 107% | 112% | 118% | 85.7% | 102% | 11.1% | 88.8% | 95.7% | 96.3% | 101% | 102% | 98.9% | 90.9% | 94% | 83.6% | 106% | 34.3% | 121% | 116% | 128% | 122% | 104% | 107% | 103% | 102%
